pIC50: −log10 of the molar value.
Target: cGMP-specific PDE (PDE5) (UniProt O76074)
Assay: In vitro PDE inhibitory activity (IC50) against cGMP PDE5
Assay type: biochemical, human or rabbit
Settings: in vitro activities as inhibitors of cGMP PDE5
Description: In vitro PDE inhibitory activities against cyclic guanosine 3′,5′-monophosphate (cGMP) and cyclic adenosine 3′,5′-monophosphate (cAMP) phosphodiesterases were determined by measurement of their IC50 values (the concentration of compound required for 50% inhibition of enzyme activity).
The required PDE enzymes were isolated from a variety of sources, including human corpus cavernosum, human and rabbit platelets, human cardiac ventricle, human skeletal muscle and bovine retina, essentially by the method of W. J. Thompson and M. M. Appleman (Biochem., 1971, 10, 311). In particular, the cGMP-specific PDE (PDE5) and the cGMP-inhibited cAMP PDE (PDE3) were obtained from human corpus cavernosum tissue, human platelets or rabbit platelets; the cGMP-stimulated PDE (PDE2) was obtained from human corpus cavernosum; the calcium/calmodulin (Ca/CAM)-dependent PDE (PDE1) from human cardiac ventricle; the cAMP-specific PDE (PDE^4) from human skeletal muscle; and the photoreceptor PDE (PDE6) from bovine retina.
Assays were performed using a modification of the “batch” method of W. J. Thompson et al. (Biochem., 1979, 18, 5228).

pIC50 | Structure (SMILES)
8.41 | CCCc1nn(Cc2ccccc2)c2c(=O)[nH]c(-c3cc(S(=O)(=O)N4CCN(C)CC4)ccc3OCC)nc12 [Example 41, 1-Benzyl-5-[2-ethoxy-5-(4-methylpiperazin-1-ylsulphonyl)phenyl]-3-n-propyl-1,6-dihydro-7H-pyrazolo[4,3-d]pyrimidin-7-one]
8.72 | CCCOc1ccc(S(=O)(=O)N2CCN(CC)CC2)cc1-c1nc2c(CCC)nn(CCN3CCOCC3)c2c(=O)[nH]1 [Example 100, 5-[5-(4-Ethylpiperazin-1-ylsulphonyl)-2-n-propoxyphenyl]-1-(2-morpholin-4-ylethyl)-3-n-propyl-1,6-dihydro-7H-pyrazolo[4,3-d]pyrimidin-7-one]
8.59 | CCCOc1ccc(S(=O)(=O)N2CCN(CCO)CC2)cc1-c1nc2c(CCC)n(Cc3ccccn3)nc2c(=O)[nH]1 [Example 7, 5-{5-[4-(2-Hydroxyethyl)piperazin-1-ylsulphonyl]-2-n-propoxyphenyl}-3-n-propyl-2-(pyridin-2-yl)methyl-2,6-dihydro-7H-pyrazolo[4,3-d]pyrimidin-7-one]
8.68 | CCCOc1ccc(S(=O)(=O)N2CCN(CC)CC2)cc1-c1nc2c(CCC)n(CCN3CCOCC3)nc2c(=O)[nH]1 [Example 108, 5-[5-(4-Ethylpiperazin-1-ylsulphonyl)-2-n-propoxyphenyl]-2-(2-morphin-4-ylethyl)-3-n-propyl-2,6-dihydro-7H-pyrazolo[4,3-d]pyrimidin-7-one]
8.04 | CCCc1c2nc(-c3cc(S(=O)(=O)N4CCN(C)CC4)ccc3OCC)[nH]c(=O)c2nn1CC1CCC1 [Example 126, 2-Cyclobutylmethyl-5-[2-ethoxy-5-(4-methylpiperazin-1-ylsulphonyl)phenyl]-3-n-propyl-2,6-dihydro-7H-pyrazolo[4,3-d]pyrimidin-7-one]
8.15 | CCCOc1ccc(S(=O)(=O)N2CCN(C)CC2)cc1-c1nc2c(CCC)n(Cc3ncnn3C)nc2c(=O)[nH]1 [Example 77, 5-[5-(4-Methylpiperazin-1-ylsulphonyl)-2-n-propoxyphenyl]-2-(1-methyl-1,2,4-triazol-5-yl)methyl-3-n-propyl-2,6-dihydro-7H-pyrazolo[4,3-d]pyrimidin-7-one]
8.40 | CCCOc1ccc(S(=O)(=O)N2CCN(C)CC2)cc1-c1nc2c(CCC)nn(Cc3ncnn3C)c2c(=O)[nH]1 [Example 31, 5-[5-(4-Methylpiperazin-1-ylsulphonyl)-2-n-propoxyphenyl]-1(1-methyl-1,2,4-triazol-5-yl)methyl-3-n-propyl-1,6-dihydro-7H-pyrazolo-[4,3-d]pyrimidin-7-one]
8.55 | CCCOc1ccc(S(=O)(=O)N2CCN(C)CC2)cc1-c1nc2c(CCC)n(-c3ncccn3)nc2c(=O)[nH]1 [Example 125, 5-[5-(4-Methylpipierazin-1-ylsulphonyl)-2-n-propoxyphenyl]-3-n-propyl-2-pyrimidin-2-yl-2,6-dihydro-7H-pyrazolo[4,3-d]pyrimidin-7-one]
7.92 | CCCc1c2nc(-c3cc(S(=O)(=O)N4CCN(C)CC4)ccc3OCC)[nH]c(=O)c2nn1Cc1ccccc1 [Example 87, 2-Benzyl-5-[2-ethoxy-5-(4-methylpiperazin-1-ylsulphonyl)phenyl]-3-n-propyl-2,6-dihydro-7H-pyrazolo[4,3-d]pyrimidin-7-one]
8.49 | CCCOc1ccc(S(=O)(=O)N2CCN(CC)CC2)cc1-c1nc2c(CCC)n(-c3ccccc3NS(C)(=O)=O)nc2c(=O)[nH]1 [Example 117, 5-[5-(4-Ethylpiperazin-1-ylsulphonyl)-2-n-propoxyphenyl]-2-(2-methanesulphonamidophenyl)-3-n-propyl-2,6-dihydro-7H-pyrazolo[4,3-d]-pyrimidin-7-one]
8.19 | CCCOc1ccc(S(=O)(=O)N2CCN(CC)CC2)cc1-c1nc2c(CCC)n(Cc3cccc[n+]3[O-])nc2c(=O)[nH]1 [Example 129, 5-[5-(4-Ethylpiperazin-1-ylsulphonyl)-2-n-propoxyphenyl]-2-(1-oxidopyridin-2-yl)methyl-3-n-propyl-2,6-dihydyro-7H-pyrazolo[4,3-d]pyrimidin-7-one]
8.66 | CCCOc1ccc(S(=O)(=O)N2CCN(CCO)CC2)cc1-c1nc2c(CCC)nn(Cc3ccccn3)c2c(=O)[nH]1 [Example 4, 5-{5-[4-(2-Hydroxyethyl)piperazin-1-ylsulphonyl]-2-n-propoxyphenyl}-3-n-propyl-1-(pyridin-2-yl)methyl-1,6-dihydro-7H-pyrazolo[4,3-d]pyrimidin-7-one]

From patent US6916927B2, “Pyrazolopyrimidinones which inhibit type 5 cyclic guanosine 3′,5′-monophosphate phosphodiesterase (cGMP-PDE5) for the treatment of sexual dysfunction” (Pfizer Inc., priority 1997, dated 2005)
